Results from US20180147187A1, “COMPOUNDS, COMPOSITIONS, AND METHODS FOR INCREASING CFTR ACTIVITY” (Proteostasis Therapeutics, Inc., priority 2006, published 2018).

Assays:
ΔF508-CFTR [1] = target: T1, ΔF508-CFTR (Homo sapiens, UniProt P13569, DEL508-508); assay: hBE Equivalent Current (Ieq) Assay; assay type: cell-based; conditions: compound at 10 uM and VX-809 at 1 uM; ΔF508 homozygous hBE, 24 hours; AUC of equivalent chloride current
T1 construct: primary lung epithelial cells (hBEs) homozygous for the Cystic Fibrosis-causing ΔF508 mutation; endogenous in cells; host or cells: primary human bronchial epithelial cells (hBE), ΔF508/ΔF508, differentiated at air-liquid interface
Description: Primary lung epithelial cells homozygous for the Cystic Fibrosis-causing ΔF508 mutation were differentiated for a minimum of 4 weeks in an air-liquid interface on Costar 24 well HTS filter plates prior to the equivalent current (Ieq) measurements. Cells were apically mucus-washed for 30 minutes 24 h prior to treatment with compounds. The basolateral media was removed and replaced with media containing the compound of interest diluted to its final concentration from DMSO stocks. Treated cells were incubated at 37° C. and 5% CO2 for 24 hours. At the end of the treatment period, the media was changed to the Ieq experimental solution for 30 minutes before the experiment and plates are maintained in a CO2-free incubator during this period. The plates containing the cells were then placed in pre-warmed heating blocks at 36° C.±0.5 for 15 minutes before measurements are taken. The transepithelial voltage (VT) and conductance (GT) were measured using a custom 24 channel current clamp (TECC-24) with 24 well electrode manifold. The Ieq assay measurements were made following additions with standardized time periods: • 1. The baseline VT and GT values were measured for approximately 20 minutes. • 2. Benzamil was added to block ENaC for 15 minutes. • 3. Forskolin plus VX-770 (ivacaftor) were added to maximally activate ΔF508-CFTR for 27 minutes. • 4. Bumetanide was added to inhibit the NaK2C1 cotransporter and shut-off secretion of chloride.
The activity data captured was the area under the curve (AUC) for the traces of the equivalent chloride current. The AUC was collected from the time of the forskolin/VX-770 addition until the inhibition by bumetanide addition. Correction in response to compound treatment was scored as the increase in the AUC for compound-treated samples over that of vehicle-treated samples.
(§1) (** indicates activity ≥200% of VX-809 (1 uM) with compound at 10 uM and VX-809 at 1 uM; * indicates activity 100-200% of VX-809 (1 uM) with compound at 10 uM and VX-809 at 1 uM. ^## indicates activity ≥200% of VX-809 (3 uM) with compound at 10 uM and VX-809 at 3 uM; ^# indicates activity 100-200% of VX-809 (3 uM) with compound at 10 uM and VX-809 at 3 uM.

ΔF508-CFTR [2] = target: T1, ΔF508-CFTR; assay: Ussing measurements, hBEs homozygous for ΔF508; assay type: cell-based; conditions: compound at 10 uM and VX-809 at 3 uM; ΔF508 homozygous hBE, 24 hours; CFTRinh-172 inhibitable current
Description: As discussed above, Ussing measurements can be used to measure CFTR activity. In this example, primary lung epithelial cells (hBEs) homozygous for the Cystic Fibrosis-causing ΔF508 mutation were differentiated for a minimum of 4 weeks in an air-liquid interface on SnapWell filter plates prior to the Ussing measurements. Cells were apically mucus-washed for 30 minutes prior to treatment with compounds. The basolateral media was removed and replaced with media containing the compound of interest diluted to its final concentration from DMSO stocks. Treated cells were incubated at 37° C. and 5% CO2 for 24 hours. At the end of the treatment period, the cells on filters were transferred to the Ussing chamber and equilibrated for 30 minutes. The short-circuit current was measured in voltage clamp-mode (Vhold=0 mV), and the entire assay was conducted at a temperature of 36° C.-36.5° C. Once the voltages stabilized, the chambers were clamped, and data was recorded by pulse readings every 5 seconds. Following baseline current stabilization, the following additions were applied and the changes in current and resistance of the cells was monitored: • 1. Benzamil to the apical chamber to inhibit ENaC sodium channel. • 2. Forskolin to both chambers to activate ΔF508-CFTR by phosphorylation. • 3. Genistein or VX-770 (ivacaftor) to both chambers to potentiate ΔF508-CFTR channel opening. • 4. CFTRinh-172 to the apical chamber to inhibit ΔF508-CFTR Cl— conductance.
(§2) The inhibitable current (that current that is blocked by CFTRinh-172) is measured as the specific activity of the ΔF508-CFTR channel, and increases in response to compound in this activity over that observed in vehicle-treated samples are identified as the correction of ΔF508-CFTR function imparted by the compound tested.
as §1

CFTR, G551D/F508del HBEs = assay: Ussing measurements, class III mutation hBEs (G551D/F508del); assay type: cell-based, human; conditions: VX-661 3 uM, Ivacaftor 1 uM, Compound A 10 uM, 24 hours
Description: (§3) As discussed above, Ussing measurements was used to measure CFTR activity. In this method, primary lung epithelial cells (hBEs) with a Cystic Fibrosis-causing class III mutation were differentiated for a minimum of 4 weeks in an air-liquid interface on SnapWell™ filter plates prior to the Ussing measurements. Cells were apically mucus-washed for 30 minutes prior to treatment with compounds. The basolateral media was removed and replaced with media containing the compound of interest diluted to its final concentration from DMSO stocks. Treated cells were incubated at 37° C. and 5% CO2 for 24 hours. At the end of the treatment period, the cells on filters were transferred to the Ussing chamber and equilibrated for 30 minutes. The short-circuit current was measured in voltage clamp-mode (Vhold=0 mV), and the entire assay was conducted at a temperature of 36° C.-36.5° C. Once the voltages stabilized, the chambers were clamped, and data was recorded by pulse readings every 5 seconds. Following baseline current stabilization, the following additions were applied and the changes in current and resistance of the cells was monitored: • 1. Benzamil to the apical chamber to inhibit ENaC sodium channel. • 2. Forskolin to both chambers to activate ΔF508-CFTR by phosphorylation. • 3. Genistein or VX-770 (ivacaftor) to the apical chamber to potentiate ΔF508-CFTR channel opening. • 4. CFTRinh-172 to the apical chamber to inhibit ΔF508-CFTR Cl— conductance.
as §2, with “The forskolin-sensitive current and” for “The”, “(that potentiated” for “(that”, “CFTRinh-172) were” for “CFTRinh-172) is”, “and increase” for “and increases”, “samples were” for “samples are”
(§4) The results are shown below in Tables 5 and 6. VX-661 is 3 uM, Ivacaftor is 1 uM and Compound A is 10 uM.

CFTR, S549N/F508del HBEs = assay: Ussing measurements, class III mutation hBEs (S549N/F508del); assay type: cell-based, human; conditions: Ivacaftor 1 uM, Compound A 10 uM, 24 hours
Description: as §3
as §2, with “The forskolin-sensitive current and” for “The”, “(that potentiated” for “(that”, “CFTRinh-172) were” for “CFTRinh-172) is”, “and increase” for “and increases”, “samples were” for “samples are”
as §4

T1 sequence (P13569 with tags, fused parts or gaps DEL508-508): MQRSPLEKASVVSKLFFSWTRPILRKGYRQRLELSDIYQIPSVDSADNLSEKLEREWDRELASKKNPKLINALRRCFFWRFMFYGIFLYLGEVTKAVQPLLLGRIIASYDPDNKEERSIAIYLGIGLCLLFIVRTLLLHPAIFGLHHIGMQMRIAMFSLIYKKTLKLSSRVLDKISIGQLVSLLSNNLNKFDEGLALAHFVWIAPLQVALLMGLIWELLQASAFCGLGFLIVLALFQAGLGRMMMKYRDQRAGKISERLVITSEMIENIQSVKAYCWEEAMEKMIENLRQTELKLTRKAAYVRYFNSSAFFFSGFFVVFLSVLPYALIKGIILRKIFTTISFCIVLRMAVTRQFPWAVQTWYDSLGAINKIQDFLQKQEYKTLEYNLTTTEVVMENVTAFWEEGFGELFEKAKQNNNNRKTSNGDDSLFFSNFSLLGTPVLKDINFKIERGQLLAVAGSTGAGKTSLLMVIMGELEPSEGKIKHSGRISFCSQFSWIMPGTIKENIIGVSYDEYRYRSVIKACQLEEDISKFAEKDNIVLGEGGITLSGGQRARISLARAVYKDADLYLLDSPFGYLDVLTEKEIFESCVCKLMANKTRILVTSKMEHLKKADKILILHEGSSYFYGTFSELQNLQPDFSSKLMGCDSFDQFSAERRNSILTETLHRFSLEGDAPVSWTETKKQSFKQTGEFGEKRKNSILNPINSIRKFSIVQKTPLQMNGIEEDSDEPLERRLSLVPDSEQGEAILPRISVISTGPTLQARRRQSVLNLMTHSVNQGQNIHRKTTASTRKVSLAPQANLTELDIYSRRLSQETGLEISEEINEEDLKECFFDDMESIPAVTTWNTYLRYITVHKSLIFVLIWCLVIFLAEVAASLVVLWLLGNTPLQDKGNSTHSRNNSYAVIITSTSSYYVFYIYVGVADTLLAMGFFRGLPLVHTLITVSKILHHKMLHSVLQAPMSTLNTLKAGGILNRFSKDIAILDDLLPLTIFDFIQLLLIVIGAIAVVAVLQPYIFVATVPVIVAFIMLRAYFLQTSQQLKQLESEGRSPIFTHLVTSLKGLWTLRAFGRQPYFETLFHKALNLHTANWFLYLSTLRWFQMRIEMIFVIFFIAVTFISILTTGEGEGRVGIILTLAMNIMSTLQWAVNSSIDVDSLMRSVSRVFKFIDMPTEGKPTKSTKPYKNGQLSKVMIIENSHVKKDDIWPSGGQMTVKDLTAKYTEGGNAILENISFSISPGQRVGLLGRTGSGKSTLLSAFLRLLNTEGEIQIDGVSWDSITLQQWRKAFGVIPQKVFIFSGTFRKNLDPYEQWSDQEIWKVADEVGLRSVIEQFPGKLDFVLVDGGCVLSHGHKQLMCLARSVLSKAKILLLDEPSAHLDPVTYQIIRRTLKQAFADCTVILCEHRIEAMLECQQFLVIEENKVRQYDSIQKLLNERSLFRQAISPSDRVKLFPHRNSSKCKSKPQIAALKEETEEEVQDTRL

SMILES | Ieq (% VX-809) (ΔF508-CFTR [1]) | Ussing (% VX-809) (ΔF508-CFTR [2]) | further results
O=C(N[C@H]1C[C@@H](n2ccc(CO)n2)C1)c1cc(-c2ccccc2)on1 | ** (** indicates activity ≥200% of VX-809 (1 uM) with compound at 10 uM and VX-809 at 1 uM) |  | 
C[C@H](O)c1cn([C@H]2C[C@@H](NC(=O)c3cc(-c4ccccc4)on3)C2)nn1 | ** (** indicates activity ≥200% of VX-809 (1 uM) with compound at 10 uM and VX-809 at 1 uM) |  | 
O=C(N[C@H]1C[C@H](n2nncc2CO)C1)c1cc(-c2ccccc2)on1 | * (* indicates activity 100-200% of VX-809 (1 uM) with compound at 10 uM and VX-809 at 1 uM) | ## (^## indicates activity ≥200% of VX-809 (3 uM) with compound at 10 uM and VX-809 at 3 uM) | 
O=C(N[C@H]1C[C@H](Cc2nnc(CO)s2)C1)c1cc(-c2ccccc2)on1 | ** (** indicates activity ≥200% of VX-809 (1 uM) with compound at 10 uM and VX-809 at 1 uM) |  | 
C[C@@H](O)c1cn([C@H]2C[C@@H](NC(=O)c3cc(-c4ccccc4)on3)C2)nn1 | ** (** indicates activity ≥200% of VX-809 (1 uM) with compound at 10 uM and VX-809 at 1 uM) |  | 
C[C@@H](O)c1cnnn1[C@H]1C[C@@H](NC(=O)c2cc(-c3ccccc3)on2)C1 | ** (** indicates activity ≥200% of VX-809 (1 uM) with compound at 10 uM and VX-809 at 1 uM) |  | 
O=C(NC[C@H]1C[C@H](c2nnc(CO)s2)C1)c1cc(-c2ccccc2)on1 | ** (** indicates activity ≥200% of VX-809 (1 uM) with compound at 10 uM and VX-809 at 1 uM) |  | 
O=C(N[C@H]1C[C@H](n2cc(CO)nn2)C1)c1cc(-c2ccccc2)on1 | * (* indicates activity 100-200% of VX-809 (1 uM) with compound at 10 uM and VX-809 at 1 uM) | ## (^## indicates activity ≥200% of VX-809 (3 uM) with compound at 10 uM and VX-809 at 3 uM) | 
O=C(N[C@H]1C[C@@H](n2nncc2CO)C1)c1cc(-c2ccccc2)on1 | ** (** indicates activity ≥200% of VX-809 (1 uM) with compound at 10 uM and VX-809 at 1 uM) | ## (^## indicates activity ≥200% of VX-809 (3 uM) with compound at 10 uM and VX-809 at 3 uM) | 
CC(C)(CO)c1cc2cc(NC(=O)C3(c4ccc5c(c4)OC(F)(F)O5)CC3)c(F)cc2n1C[C@@H](O)CO [VX-661, 1-(2,2-difluoro-1,3-benzodioxol-5-yl)-N-[1-[(2R)-2,3-dihydroxypropyl]-6-fluoro-2-(2-hydroxy-1,1-dimethylethyl)-1H-indol-5-yl]-cyclopropanecarboxamide] |  |  | Activity in G551D/F508del HBEs (CFTR, G551D/F508del HBEs): 3.8 uAMP/cm^2
O=C(N[C@H]1C[C@@H](n2cc(CO)cn2)C1)c1cc(-c2ccccc2)on1 | * (* indicates activity 100-200% of VX-809 (1 uM) with compound at 10 uM and VX-809 at 1 uM) |  | 
Cc1ccc(NC(=O)C2(c3ccc4c(c3)OC(F)(F)O4)CC2)nc1-c1cccc(C(=O)O)c1 [VX-809, 3-(6-(1-(2,2-difluorobenzo[d][1,3]dioxol-5-yl)cyclopropanecarboxamido)-3-methylpyridin-2-yl)benzoic acid] |  |  | Activity in S549N/F508del HBEs (CFTR, S549N/F508del HBEs): 6.4 uAMP/cm^2
O=C(N[C@H]1C[C@@H](Cc2nnc(CO)s2)C1)c1cc(-c2ccccc2)on1 | ** (** indicates activity ≥200% of VX-809 (1 uM) with compound at 10 uM and VX-809 at 1 uM) | ## (^## indicates activity ≥200% of VX-809 (3 uM) with compound at 10 uM and VX-809 at 3 uM) | 
O=C(NC1CC(c2nnc(CO)o2)C1)c1cc(-c2ccccc2)on1 (centres unmarked) |  | ## (^## indicates activity ≥200% of VX-809 (3 uM) with compound at 10 uM and VX-809 at 3 uM) | 
C[C@@H](O)c1nnc(C2CC(NC(=O)c3cc(-c4ccccc4)on3)C2)o1 (some centres unmarked) |  | ## (^## indicates activity ≥200% of VX-809 (3 uM) with compound at 10 uM and VX-809 at 3 uM) | 
C[C@H](O)c1cnnn1[C@H]1C[C@@H](NC(=O)c2cc(-c3ccccc3)on2)C1 | ** (** indicates activity ≥200% of VX-809 (1 uM) with compound at 10 uM and VX-809 at 1 uM) | ## (^## indicates activity ≥200% of VX-809 (3 uM) with compound at 10 uM and VX-809 at 3 uM) | 
O=C(N[C@H]1C[C@@H](c2nnc(CO)s2)C1)c1cc(-c2ccccc2)on1 | ** (** indicates activity ≥200% of VX-809 (1 uM) with compound at 10 uM and VX-809 at 1 uM) |  | 
O=C(N[C@H]1C[C@@H](n2cc(CO)nn2)C1)c1cc(-c2ccccc2)on1 | ** (** indicates activity ≥200% of VX-809 (1 uM) with compound at 10 uM and VX-809 at 1 uM) | ## (^## indicates activity ≥200% of VX-809 (3 uM) with compound at 10 uM and VX-809 at 3 uM) | 
C[C@H](O)c1nnc(C2CC(NC(=O)c3cc(-c4ccccc4)on3)C2)o1 (some centres unmarked) |  | ## (^## indicates activity ≥200% of VX-809 (3 uM) with compound at 10 uM and VX-809 at 3 uM) | 
O=C(NC[C@H]1C[C@@H](c2nnc(CO)s2)C1)c1cc(-c2ccccc2)on1 | ** (** indicates activity ≥200% of VX-809 (1 uM) with compound at 10 uM and VX-809 at 1 uM) |  | 
